From patent US20120083522A1, “MODULATION OF INFLAMMATORY RESPONSES BY FACTOR XI” (Isis Pharmaceuitcals, inc., priority 2009, published 2012)
In the oligonucleotide strings, read from the 5' end, every base follows the letter of its sugar. An asterisk marks phosphorothioate; unmarked linkages are phosphodiester. Other units and linkages are bracketed, terminal groups are in braces. A string of capitals states the bases alone. e = 2'-O-(2-methoxyethyl) (MOE); [5mC] = 5-methylcytosine; d = 2'-deoxy (DNA)

Experiments:
[1] = tested on: Factor XI protein; experiment: Cynomolgus monkeys: plasma Factor XI protein ELISA (Example 30); type: in vivo; details: for Inhibition of Factor XI protein relative to the PBS control: 25 mg/kg s.c., plasma ELISA
Experimental: (§1) Groups, each consisting of two male and two female monkeys, were injected subcutaneously with 25 mg/kg of ISIS 416850, ISIS 449709, ISIS 445522, ISIS 449710, ISIS 449707, ISIS 449711, ISIS 449708, 416858 and ISIS 445531. Antisense oligonucleotide was administered to the monkeys at 25 mg/kg three times per week for week 1 and 25 mg/kg twice per week for weeks 2 to 8. A control group, consisting of two male and two female monkeys was injected subcutaneously with PBS according to the same dosing regimen. Body weights were taken 14 days and 7 days before the start of treatment and were then measured weekly throughout the treatment period. Blood samples were collected 14 days and 5 days before the start of treatment and subsequently several times during the dosing regimen for measurement of various hematologic factors. On day 55, the monkeys were euthanized by exsanguination while under deep anesthesia, and organs harvested for further analysis.
Plasma samples from all monkey groups taken on different days were analyzed by a sandwich-style ELISA assay (Affinity Biologicals Inc.) using an affinity-purified polyclonal anti-Factor XI antibody as the capture antibody and a peroxidase-conjugated polyclonal anti-Factor XI antibody as the detecting antibody. Monkey plasma was diluted 1:50 for the assay. Peroxidase activity was expressed by incubation with the substrate o-phenylenediamine. The color produced was quantified using a microplate reader at 490 nm and was considered to be proportional to the concentration of Factor XI in the samples.
The results are presented in Table 148, expressed as percentage reduction relative to that of the PBS control.

[2] = tested on: Factor XI mRNA; experiment: Cynomolgus monkeys, 25 mg/kg: liver Factor XI RNA analysis (Example 30); type: in vivo; details: for % inhibition of Factor XI mRNA in liver relative to the PBS control: 25 mg/kg s.c., day 55
Experimental: as §1
On day 55, RNA was extracted from liver tissue for real-time PCR analysis of Factor XI using primer probe set LTS00301. Results are presented as percent inhibition of Factor XI, relative to PBS control.

[3] = Tolerability in CD1 mice: body and organ weight (Example 25); type: in vivo; details: 50 mg/kg s.c. twice per week for 6 weeks
[4] = tested on: IL-1β, IL-6, IFN-γ, TNF-α, IL-8, MIP-1α, MCP-1, MIP-10, RANTES; experiment: Cynomolgus monkeys: cytokine and chemokine assays (Example 30); type: in vivo
Summary of the method: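 Sampling at day −14 and at necropsy on day 55 gave blood for cytokine and chemokine levels, read with primate antibodies for IL-1β, IL-6, IFN-γ and TNF-α and human cross-reacting antibodies for the rest. Dosing: subcutaneous 25 mg/kg, 3×/week week 1, 2×/week weeks 2–8; PBS control; 2 males + 2 females per group.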

[5] = Arthritis Study B: liver and spleen weight, ALT, AST; type: in vivo; details: collagen-treated DBA/1J mice, 20 mg/kg s.c. twice a week for ten weeks
Experimental: In a group of 20 DBA/1J mice, 20 mg/kg of ISIS 404071 were injected subcutaneously twice a week for ten weeks. In a second group of 20 DBA/1J mice, 20 mg/kg of ISIS 404057 were injected subcutaneously twice a week for ten weeks. In a third control group of 20 DBA/1J mice, 20 mg/kg of ISIS 421208 were injected subcutaneously twice a week for ten weeks. Two control groups of 20 mice each were injected with PBS twice a week for ten weeks.
Mice in all groups were examined daily after day 30 after the first collagen injection for the visual appearance of arthritis in peripheral joints. The results in Table 22 are expressed as percent change compared to the PBS control except for the liver and spleen weight.

[6] = tested on: DSS-induced colitis model; experiment: Colitis Study A: colon tissue histopathology
[7] = tested on: thrombin-antithrombin (TAT) complexes; experiment: Colitis Study D: TAT levels in colon; type: in vivo, Swiss Webb mice; details: for TAT levels in colon: DSS-treated mice
Experimental: In a first group of 8 Swiss Webb mice, 10 mg/kg of ISIS 404071 was injected subcutaneously twice a week for 3 weeks. In a second group of 8 Swiss Webb mice, 20 mg/kg of ISIS 404057 was subcutaneously injected twice a week for 3 weeks. In a third control group of 8 Swiss Webb mice, 40 mg/kg of ISISI 404057 was injected subcutaneously twice a week for 3 weeks. Two control groups of 8 mice each were injected with PBS twice a week for 3 weeks. After the oligonucleotide treatment, 4% DSS in water was administered ad libitum for 7 days to all the experimental groups and one PBS control group.
Mice with dextran sodium sulfate (DSS)-induced colitis have elevated level of thrombin-antithrombin (TAT) complexes in blood (Anthoni, C. et al., J. Exp. Med. 204: 1595-1601, 2007) that is also observed in patients with ulcerative colitis (Kume, K. et al., Intern Med. 2007. 46: 1323-9). The effect of antisense inhibition of Factor XI on TAT levels in the colon was evaluated (Thrombi-Anti-Thrombin III complex, Siemens Healthcare Diagnostics, Deerfield, Ill.) and the results are presented in Table 30.

[8] = tested on: DSS-induced colitis model; experiment: Colitis Study E: weight change, colon length, stool analysis; type: in vivo, Swiss Webb mice; details: for Colon length / Weight change / Diarrhea score: DSS-treated mice; for Colon length / Weight change: 40 mpk; for Diarrhea score: day 7, 40 mpk
Experimental: Two groups 8 Swiss Webb mice were dosed with 40 mg/kg of ISIS 404071 injected subcutaneously twice a week for 3 weeks. Two control groups of 8 Swiss Webb mice were dosed with PBS subcutaneously twice a week for 3 weeks. Both the ASO treated groups and one of the control groups were then given 4% DSS in distilled water for 7 days ad libitum. One of the ASO and DSS treated groups was also given intravenous injections of 20 μg of recombinant human Factor XI protein (Haematologic Technologies Inc.) for 7 consecutive days, starting the day before DSS treatment. Mice were sacrificed at the end of the study on day 7 after DSS was administered.
Mice in all groups were weighed at day 0 and at the end of the study. […] Mice were sacrificed at the end of the study on day 7 after DSS was administered and their colon lengths were measured.

[9] = day −14 (before start of treatment)
[10] = plus human recombinant FXI 20 ug/mouse/day

Substance | Inhibition of Factor XI protein relative to the PBS control ([1]; Day 10) | Inhibition of Factor XI protein relative to the PBS control ([1]; Day 17) | Inhibition of Factor XI protein relative to the PBS control ([1]; Day 24) | Inhibition of Factor XI protein relative to the PBS control ([1]; Day 31) | Inhibition of Factor XI protein relative to the PBS control ([1]; Day 38) | Inhibition of Factor XI protein relative to the PBS control ([1]; Day 45) | Inhibition of Factor XI protein relative to the PBS control ([1]; Day 52) | Inhibition of Factor XI protein relative to the PBS control ([1]; Day 55) | Inhibition of Factor XI protein relative to the PBS control ([1]; Day −5) | Inhibition of Factor XI protein relative to the PBS control ([1]; Day −14) | % inhibition of Factor XI mRNA in liver relative to the PBS control [2] | other results
416850 (antisense TGCACAGTTTCTGGCAGGCC; 5-10-5 gapmer, wing sugar chemistry not given here, further chemistry not given here) [compound 416850] | 20% | 31% | 38% | 52% | 51% | 53% | 53% | 58% | 0% | 0% | 68% | –
416858 (antisense ACGGCATTGGTGCACAGTTT; 5-10-5 gapmer, wing sugar chemistry not given here, further chemistry not given here) [compound 416858] | 36% | 49% | 62% | 68% | 74% | 79% | 81% | 81% | 0% | 4% | 89% | –
445522 (antisense eG*e[5mC]*eA*e[5mC]*eA*dG*dT*dT*dT*d[5mC]*dT*dG*dG*e[5mC]*eA*eG*eG*e[5mC]) [compound 445522] | 36% | 50% | 61% | 70% | 73% | 77% | 80% | 82% | 0% | 2% | 89% | –
445531 (antisense eG*eG*e[5mC]*eA*eT*dT*dG*dG*dT*dG*d[5mC]*dA*d[5mC]*eA*eG*eT*eT*eT) [compound 445531] | 9% | 22% | 23% | 27% | 29% | 32% | 32% | 37% | 1% | 0% | 66% | –
ISIS 416850: gapmer of Table 8 (antisense eT*eG*e[5mC]*eA*e[5mC]*dA*dG*dT*dT*dT*d[5mC]*dT*dG*dG*d[5mC]*eA*eG*eG*e[5mC]*e[5mC]) | – | – | – | – | – | – | – | – | – | – | – | Body weight (increase over PBS control weight before start of treatment) [3]: 11 g; Kidney weight as percentage of body weight ([3]; end of study): 1.5%; Liver weight as percentage of body weight ([3]; end of study): 6%; Spleen weight as percentage of body weight ([3]; end of study): 0.4%; Factor XI protein levels (in words) ([1]; cynomolgus monkeys, Example 30): time-dependent decrease in protein levels; IL-1β level ([4]; 25 mg/kg s.c., day 55): 106 pg/mL; MIP-1β level ([4]; 25 mg/kg s.c., day 55): 50 pg/mL; IL-1β level [4, 9]: 215 pg/mL; MIP-1β level [4, 9]: 31 pg/mL; Factor XI mRNA in liver (in words) ([2]; cynomolgus monkeys, day 55, in comparison to the PBS control): significant reduction of Factor XI mRNA
TGGTAATCCACTTTCAGAGG (eT*eG*eG*eT*eA*dA*dT*d[5mC]*d[5mC]*dA*d[5mC]*dT*dT*dT*d[5mC]*eA*eG*eA*eG*eG) [ISIS 404071, 5-10-5 MOE gapmer targeting murine Factor XI, target start site 869] | – | – | – | – | – | – | – | – | – | – | – | Liver ALT [5]: 56.6; Liver AST [5]: 86.75; Liver Weight as a % of Body Weight [5]: 6.089%; Spleen Weight as a % of Body Weight [5]: 0.759 % of Body Weight; colon histology, lesions (in words) ([6]; FIG. 8): significantly fewer mucosa ulcerative lesions; colon histology, lesions (in words) ([6]; FIG. 8, listed as Factor XI): significantly milder ulcerative colitis lesions; mucosa ulcers ([6]; FIG. 8D, DSS control 2-4/animal): > 1 /animal; TAT levels in the colon (in words) ([7]; Colitis Study D): decreased in a dose-dependent manner; TAT levels in colon ([7]; 10 mpk): 1.79 ng/mg protein; TAT levels in colon ([7]; 20 mpk): 0.65 ng/mg protein; TAT levels in colon ([7]; 40 mpk): 0.75 ng/mg protein; colon length (in words) ([8]; Colitis Study E, day 7): increase in colon length; stool softness/diarrhea (in words) ([8]; Colitis Study E, day 7): amelioration of diarrhea; Colon length ([8]; no human recombinant FXI): 9.9 cm; Weight change ([8]; no human recombinant FXI): +1.8%; Colon length [8, 10]: 7.3 cm; Weight change [8, 10]: +0.3%; Diarrhea score ([8]; no human recombinant FXI): 0.5; Diarrhea score [8, 10]: 2.0
